Like-named read-outs stand apart in the source and are kept apart here.
What was measured:
Assay in all cases: Kinase selectivity, scanMAX Kinase assay panel (DiscoverX), % control at 1 uM
Assay type in all cases: binding
[1] = target: T1, scanMAX Kinase assay panel (Homo sapiens, UniProt O15075); details: DCAMKL1; 1 uM; read-out: Percent Control (%)
T1 construct: purchased DiscoverX
Procedure, shortened: (§1)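 A single concentration of 1 uM, in DMSO, is applied across the kinase panel. Activity against an individual enzyme is assigned where % control is less than 35.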

[2] = target: T2, scanMAX Kinase assay panel (Homo sapiens, UniProt O75582); details: 1 uM, read-out: Percent Control (%)
T2 construct: purchased DiscoverX
Procedure, shortened: as §1

[3] = target: T3, scanMAX Kinase assay panel (Homo sapiens, UniProt P21709); details: EPHA1; 1 uM; read-out: Percent Control (%)
T3 construct: purchased DiscoverX
T3 sequence (P21709 26-976): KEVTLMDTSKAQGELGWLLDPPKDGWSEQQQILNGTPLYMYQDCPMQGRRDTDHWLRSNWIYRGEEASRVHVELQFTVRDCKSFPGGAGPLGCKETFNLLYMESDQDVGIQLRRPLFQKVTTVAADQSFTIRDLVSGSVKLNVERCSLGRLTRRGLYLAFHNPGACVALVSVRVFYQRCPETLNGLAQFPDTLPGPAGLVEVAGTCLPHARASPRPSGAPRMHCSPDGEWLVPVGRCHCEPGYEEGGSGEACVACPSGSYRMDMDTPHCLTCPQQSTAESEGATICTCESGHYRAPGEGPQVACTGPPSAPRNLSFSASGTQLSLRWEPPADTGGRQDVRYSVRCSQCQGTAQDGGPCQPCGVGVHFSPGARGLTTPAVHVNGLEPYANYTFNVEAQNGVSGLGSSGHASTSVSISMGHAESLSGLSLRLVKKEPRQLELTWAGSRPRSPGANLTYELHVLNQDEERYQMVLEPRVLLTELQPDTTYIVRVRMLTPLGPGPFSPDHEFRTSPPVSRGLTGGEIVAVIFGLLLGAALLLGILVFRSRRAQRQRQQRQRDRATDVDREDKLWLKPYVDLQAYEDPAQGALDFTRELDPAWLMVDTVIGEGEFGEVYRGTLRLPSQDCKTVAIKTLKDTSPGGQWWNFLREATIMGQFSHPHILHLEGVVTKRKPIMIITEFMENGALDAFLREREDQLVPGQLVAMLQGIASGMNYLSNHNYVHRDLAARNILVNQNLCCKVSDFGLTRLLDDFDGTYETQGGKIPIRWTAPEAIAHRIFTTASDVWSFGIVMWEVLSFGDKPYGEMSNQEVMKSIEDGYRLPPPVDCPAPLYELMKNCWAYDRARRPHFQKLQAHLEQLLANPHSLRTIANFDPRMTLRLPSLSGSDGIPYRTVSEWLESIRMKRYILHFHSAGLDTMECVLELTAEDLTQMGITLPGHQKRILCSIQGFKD
Procedure, shortened: as §1

[4] = target: T4, scanMAX Kinase assay panel (Homo sapiens, UniProt P42338); details: PIK3CB; 1 uM; read-out: Percent Control (%)
T4 construct: purchased DiscoverX
Procedure, shortened: as §1

[5] = target: T5, scanMAX Kinase assay panel (Homo sapiens, UniProt Q8N752); details: CSNK1A1L; 1 uM; read-out: Percent Control (%)
T5 construct: purchased DiscoverX
T5 sequence (Q8N752 1-337): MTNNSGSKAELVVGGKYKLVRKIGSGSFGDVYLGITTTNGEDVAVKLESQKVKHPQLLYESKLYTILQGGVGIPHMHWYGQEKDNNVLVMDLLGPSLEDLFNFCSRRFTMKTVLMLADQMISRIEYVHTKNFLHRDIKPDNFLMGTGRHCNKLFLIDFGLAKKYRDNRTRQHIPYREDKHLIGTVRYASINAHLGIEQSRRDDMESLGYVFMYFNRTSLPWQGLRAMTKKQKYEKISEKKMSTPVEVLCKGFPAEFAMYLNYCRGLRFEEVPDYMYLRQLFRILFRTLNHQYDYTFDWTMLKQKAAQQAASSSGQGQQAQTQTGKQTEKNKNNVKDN
Procedure, shortened: as §1

[6] = target: T6, scanMAX Kinase assay panel (Homo sapiens, UniProt Q9BZL6); details: PRKD2; 1 uM; read-out: Percent Control (%)
T6 construct: purchased DiscoverX
T6 sequence (Q9BZL6 1-878): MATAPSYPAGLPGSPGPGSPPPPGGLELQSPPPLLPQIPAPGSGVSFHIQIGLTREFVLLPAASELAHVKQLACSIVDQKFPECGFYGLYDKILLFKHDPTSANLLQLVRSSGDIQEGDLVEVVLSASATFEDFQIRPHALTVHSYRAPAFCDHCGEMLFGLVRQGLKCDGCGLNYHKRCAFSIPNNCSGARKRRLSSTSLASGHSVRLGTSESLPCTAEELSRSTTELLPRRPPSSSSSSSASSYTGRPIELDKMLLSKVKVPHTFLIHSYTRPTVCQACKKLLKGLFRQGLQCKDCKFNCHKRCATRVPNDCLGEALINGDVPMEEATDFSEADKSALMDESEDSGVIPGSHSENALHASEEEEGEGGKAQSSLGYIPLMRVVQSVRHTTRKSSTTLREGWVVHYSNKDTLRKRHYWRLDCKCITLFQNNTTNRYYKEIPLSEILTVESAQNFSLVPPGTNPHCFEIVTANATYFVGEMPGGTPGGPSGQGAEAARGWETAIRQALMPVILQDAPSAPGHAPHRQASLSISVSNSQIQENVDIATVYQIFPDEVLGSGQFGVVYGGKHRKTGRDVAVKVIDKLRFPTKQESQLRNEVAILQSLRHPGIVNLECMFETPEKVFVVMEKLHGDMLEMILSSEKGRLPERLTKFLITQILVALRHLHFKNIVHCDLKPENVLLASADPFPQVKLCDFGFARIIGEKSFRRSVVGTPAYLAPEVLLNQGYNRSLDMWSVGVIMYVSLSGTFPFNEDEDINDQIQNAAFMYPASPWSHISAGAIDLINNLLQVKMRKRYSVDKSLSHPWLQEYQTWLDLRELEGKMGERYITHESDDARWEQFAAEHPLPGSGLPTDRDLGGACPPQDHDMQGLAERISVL
Procedure, shortened: as §1

[7] = target: T7, scanMAX Kinase assay panel (Homo sapiens, UniProt Q9Y2K2); details: QSK; 1 uM; read-out: Percent Control (%)
T7 construct: purchased DiscoverX
Procedure, shortened: as §1

T7 sequence (Q9Y2K2 whole entry): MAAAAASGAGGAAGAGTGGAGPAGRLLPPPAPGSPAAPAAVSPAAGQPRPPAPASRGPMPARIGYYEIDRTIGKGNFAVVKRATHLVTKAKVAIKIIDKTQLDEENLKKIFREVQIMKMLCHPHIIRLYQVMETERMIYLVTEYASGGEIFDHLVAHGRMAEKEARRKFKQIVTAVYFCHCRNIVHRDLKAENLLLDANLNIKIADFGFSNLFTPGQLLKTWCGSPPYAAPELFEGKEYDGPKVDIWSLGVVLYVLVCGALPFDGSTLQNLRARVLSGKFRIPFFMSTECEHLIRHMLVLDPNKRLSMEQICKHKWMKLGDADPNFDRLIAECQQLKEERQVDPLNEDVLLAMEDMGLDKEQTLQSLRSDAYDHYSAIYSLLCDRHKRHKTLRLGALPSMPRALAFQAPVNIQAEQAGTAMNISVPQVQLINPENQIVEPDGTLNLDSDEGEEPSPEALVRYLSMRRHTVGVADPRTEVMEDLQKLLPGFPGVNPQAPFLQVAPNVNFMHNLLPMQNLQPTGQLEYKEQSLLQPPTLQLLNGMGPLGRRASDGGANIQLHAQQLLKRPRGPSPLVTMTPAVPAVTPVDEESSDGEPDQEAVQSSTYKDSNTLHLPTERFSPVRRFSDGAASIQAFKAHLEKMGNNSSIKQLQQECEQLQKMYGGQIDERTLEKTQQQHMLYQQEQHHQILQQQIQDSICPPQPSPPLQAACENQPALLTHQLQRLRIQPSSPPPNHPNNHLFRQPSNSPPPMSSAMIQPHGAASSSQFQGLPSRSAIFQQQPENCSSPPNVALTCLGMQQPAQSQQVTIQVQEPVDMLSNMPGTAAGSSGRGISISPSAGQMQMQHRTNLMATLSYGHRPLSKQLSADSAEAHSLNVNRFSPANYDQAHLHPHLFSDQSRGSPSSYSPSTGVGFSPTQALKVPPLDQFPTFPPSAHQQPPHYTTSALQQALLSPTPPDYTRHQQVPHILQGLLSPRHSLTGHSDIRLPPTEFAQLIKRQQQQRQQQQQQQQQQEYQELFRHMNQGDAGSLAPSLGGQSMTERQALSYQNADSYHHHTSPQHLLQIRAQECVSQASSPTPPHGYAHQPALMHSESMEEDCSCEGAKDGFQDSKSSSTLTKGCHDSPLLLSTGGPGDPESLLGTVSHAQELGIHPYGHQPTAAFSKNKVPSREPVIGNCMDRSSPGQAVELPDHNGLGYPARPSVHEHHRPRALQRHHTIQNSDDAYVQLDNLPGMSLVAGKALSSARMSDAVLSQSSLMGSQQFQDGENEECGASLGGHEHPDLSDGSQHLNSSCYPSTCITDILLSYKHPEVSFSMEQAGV
T1 sequence (O15075 whole entry): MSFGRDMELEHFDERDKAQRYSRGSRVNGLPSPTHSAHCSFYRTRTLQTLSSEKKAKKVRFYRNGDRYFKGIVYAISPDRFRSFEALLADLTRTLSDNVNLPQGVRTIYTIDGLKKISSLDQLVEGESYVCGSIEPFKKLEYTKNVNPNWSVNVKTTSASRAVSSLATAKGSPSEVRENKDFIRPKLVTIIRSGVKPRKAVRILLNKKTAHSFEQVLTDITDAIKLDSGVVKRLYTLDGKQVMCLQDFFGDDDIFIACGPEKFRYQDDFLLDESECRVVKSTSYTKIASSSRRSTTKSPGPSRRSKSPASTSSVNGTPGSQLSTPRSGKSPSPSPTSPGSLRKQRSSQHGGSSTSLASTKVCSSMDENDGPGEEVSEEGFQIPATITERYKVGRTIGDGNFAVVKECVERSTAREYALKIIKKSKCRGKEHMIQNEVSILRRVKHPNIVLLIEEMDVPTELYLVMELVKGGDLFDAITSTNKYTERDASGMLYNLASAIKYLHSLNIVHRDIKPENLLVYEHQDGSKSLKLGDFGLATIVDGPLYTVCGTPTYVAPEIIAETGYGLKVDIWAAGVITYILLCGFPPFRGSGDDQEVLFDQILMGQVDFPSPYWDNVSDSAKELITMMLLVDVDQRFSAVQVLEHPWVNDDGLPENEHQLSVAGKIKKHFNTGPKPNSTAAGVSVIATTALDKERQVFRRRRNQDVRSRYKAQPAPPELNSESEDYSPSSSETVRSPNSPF
T4 sequence (P42338 whole entry): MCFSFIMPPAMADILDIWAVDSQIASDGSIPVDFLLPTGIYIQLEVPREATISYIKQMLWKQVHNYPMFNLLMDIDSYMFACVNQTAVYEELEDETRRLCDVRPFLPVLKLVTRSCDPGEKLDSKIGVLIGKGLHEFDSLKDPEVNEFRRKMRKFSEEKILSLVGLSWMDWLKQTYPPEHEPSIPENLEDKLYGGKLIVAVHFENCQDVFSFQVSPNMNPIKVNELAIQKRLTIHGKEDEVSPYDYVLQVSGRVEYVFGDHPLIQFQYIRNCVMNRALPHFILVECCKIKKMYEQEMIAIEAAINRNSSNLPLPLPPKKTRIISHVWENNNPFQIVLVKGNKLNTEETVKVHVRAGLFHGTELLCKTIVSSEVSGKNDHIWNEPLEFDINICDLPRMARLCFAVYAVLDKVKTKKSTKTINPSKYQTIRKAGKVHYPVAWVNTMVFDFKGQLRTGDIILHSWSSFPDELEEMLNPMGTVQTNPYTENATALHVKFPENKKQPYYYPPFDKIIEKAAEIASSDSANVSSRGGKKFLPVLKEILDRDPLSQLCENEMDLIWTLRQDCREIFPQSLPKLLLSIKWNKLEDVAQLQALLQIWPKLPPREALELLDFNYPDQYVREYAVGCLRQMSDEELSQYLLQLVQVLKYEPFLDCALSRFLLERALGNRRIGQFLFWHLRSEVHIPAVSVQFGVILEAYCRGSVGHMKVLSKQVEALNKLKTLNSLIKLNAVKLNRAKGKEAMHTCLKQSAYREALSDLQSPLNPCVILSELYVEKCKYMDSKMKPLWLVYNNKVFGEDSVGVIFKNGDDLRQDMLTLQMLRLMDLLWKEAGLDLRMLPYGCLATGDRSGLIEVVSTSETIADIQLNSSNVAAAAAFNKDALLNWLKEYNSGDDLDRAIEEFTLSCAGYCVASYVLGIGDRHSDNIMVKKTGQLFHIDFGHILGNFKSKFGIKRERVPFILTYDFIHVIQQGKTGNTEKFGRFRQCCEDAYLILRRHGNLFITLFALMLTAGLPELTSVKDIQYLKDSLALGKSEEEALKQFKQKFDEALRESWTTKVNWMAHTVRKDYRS
T2 sequence (O75582 whole entry): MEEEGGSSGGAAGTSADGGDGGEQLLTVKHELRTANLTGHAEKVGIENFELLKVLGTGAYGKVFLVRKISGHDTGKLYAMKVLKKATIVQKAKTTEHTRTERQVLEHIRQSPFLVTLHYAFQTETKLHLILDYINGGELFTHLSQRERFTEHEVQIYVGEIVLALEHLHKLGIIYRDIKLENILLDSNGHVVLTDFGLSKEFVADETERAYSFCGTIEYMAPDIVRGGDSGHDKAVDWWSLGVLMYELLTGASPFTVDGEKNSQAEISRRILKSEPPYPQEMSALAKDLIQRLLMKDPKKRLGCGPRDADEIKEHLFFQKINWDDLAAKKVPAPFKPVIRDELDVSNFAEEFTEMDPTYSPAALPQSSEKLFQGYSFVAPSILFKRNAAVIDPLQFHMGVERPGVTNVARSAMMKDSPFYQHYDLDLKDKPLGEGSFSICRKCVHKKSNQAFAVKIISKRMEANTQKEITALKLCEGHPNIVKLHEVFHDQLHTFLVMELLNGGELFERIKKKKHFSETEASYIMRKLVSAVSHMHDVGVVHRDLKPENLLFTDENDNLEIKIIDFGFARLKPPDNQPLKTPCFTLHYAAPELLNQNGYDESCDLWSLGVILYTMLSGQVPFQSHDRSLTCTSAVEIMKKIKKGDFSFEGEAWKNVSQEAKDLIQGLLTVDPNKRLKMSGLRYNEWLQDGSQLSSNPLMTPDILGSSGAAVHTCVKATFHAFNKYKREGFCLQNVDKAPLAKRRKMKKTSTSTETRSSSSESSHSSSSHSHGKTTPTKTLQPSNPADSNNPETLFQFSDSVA

Row | Structure (SMILES) | remaining binding at 1 µM [1] [%] | remaining binding at 1 µM ([2]; RPS6KA5 (Kin.Dom.1-N-terminal)) [%] | remaining binding at 1 µM ([2]; RPS6KA5 (Kin.Dom.2-C-terminal)) [%] | remaining binding at 1 µM [3] [%] | remaining binding at 1 µM [4] [%] | remaining binding at 1 µM [5] [%] | remaining binding at 1 µM [6] [%] | remaining binding at 1 µM [7] [%]
1 | Cc1ccc(C(=O)Nc2ccc(CN3CCN(C)CC3)c(C(F)(F)F)c2)cc1C#Cc1cnc2c(Nc3cnn(C)c3)cccn12 [Example 1, 4-methyl-3-((8-((1-methyl-1H-pyrazol-4-yl)amino)imidazo[1,2-a]pyridin-3-yl)ethynyl)-N-(4-((4-methylpiperazin-1-yl)methyl)-3-(trifluoromethyl)phenyl)benzamide] | 54 | 38 | 69 | 2 | 92 | 93 | 41 | 89
2 | Cc1cn(-c2cc(NC(=O)c3ccc(C)c(C#Cc4cnc5c(Nc6cnn(C)c6)cccn45)c3)cc(C(F)(F)F)c2)cn1 [Example 12, 4-methyl-N-(3-(4-methyl-1H-imidazol-1-yl)-5-(trifluoromethyl)phenyl)-3-((8-((1-methyl-1H-pyrazol-4-yl)amino)imidazo[1,2-a]pyridin-3-yl)ethynyl)benzamide] | 91 | 99 | 94 | 8 | 100 | 70 | 98 | 97
3 | Cc1ccc(NC(=O)C2(C(=O)Nc3ccc(F)cc3)CC2)cc1C#Cc1cnc2c(Nc3cnn(C(C)C)c3)cccn12 [Example 78] | 95 | 100 | 100 | 69 | 100 | 100 | 95 | 100
